Measurements as given in ChEMBL document CHEMBL5321208, “The effect of side chain variations on quinazoline-pyrimidine G-quadruplex DNA ligands” (Eur J Med Chem, 2023).
Activity calls are given as the source filed them. The calls are words filed in the database; no cut-off is given here.

Tests used:
Quadruplex DNA [1] = assay: Binding affinity to FAM/TAMRA-labelled parallel KRAS G4 DNA (unknown origin) assessed as thermal stabilization at lowest concentration at 10 to 95 degreeC by FRET analysis; assay type: nucleic-acid assay
dsDNA = assay: Binding affinity to double stranded DNA (unknown origin) assessed as thermal stabilization at 1 to 8 uM measured at 10 to 95 degreeC by FRET analysis; assay type: nucleic-acid assay; conditions: dose 1-8 µM
Quadruplex DNA [2] = assay: Binding affinity to FAM/TAMRA-labelled parallel KRAS G4 DNA (unknown origin) assessed as thermal stabilization at highest concentration at 10 to 95 degreeC by FRET analysis; assay type: nucleic-acid assay
Quadruplex DNA [3] = assay: Binding affinity to FAM/TAMRA-labelled parallel c-MYC Pu24T G4 DNA (unknown origin) assessed as thermal stabilization by measuring change in melting temperature at 2 uM in the presence of 100 equivalents of double stranded DNA by FRET competition assay; assay type: nucleic-acid assay
Quadruplex DNA [4] = assay: Binding affinity to 5'-Cy5-labelled parallel c-MYC Pu24T G4 DNA (unknown origin) assessed as dissociation constant by MST analysis; assay type: nucleic-acid assay
Quadruplex DNA [5] = assay: Binding affinity to FAM/TAMRA-labelled parallel 25ceb G4 DNA (unknown origin) assessed as thermal stabilization at 1 to 8 uM measured at 10 to 95 degreeC by FRET analysis; assay type: nucleic-acid assay; conditions: dose 1-8 µM
Quadruplex DNA [6] = assay: Binding affinity to FAM/TAMRA-labelled parallel c-MYC Pu24T G4 DNA (unknown origin) assessed as thermal stabilization at 1 to 8 uM measured at 10 to 95 degreeC by FRET analysis; assay type: nucleic-acid assay; conditions: dose 1-8 µM
Quadruplex DNA [7] = assay: Binding affinity to FAM/TAMRA-labelled c-KIT1 G4 DNA (unknown origin) assessed as thermal stabilization at 1 to 8 uM measured at 10 to 95 degreeC by FRET analysis; assay type: nucleic-acid assay; conditions: dose 1-8 µM
[8] = Cytotoxicity against wildtype C57BL/6J mouse cancer activated fibroblast cells assessed as inhibition of cell growth incubated for 5 days by resazurin dye based fluorescence microscopic analysis; assay type: toxicity
Quadruplex DNA [9] = assay: Binding affinity to FAM/TAMRA-labelled parallel c-MYC Pu24T G4 DNA (unknown origin) assessed as thermal stabilization in the presence of 15 equivalents of double stranded DNA by FRET competition assay; assay type: nucleic-acid assay
[10] = Antitumor activity against KPC mouse pancreatic cancer organoid expressing lentiviral modified GFP co-cultured with WT C57BL/6J mouse pancreatic stellate cells expressing mKate2 assessed as inhibition of cell growth incubated for 5 days by resazurin dye based fluorescence microscopic analysis; assay type: functional, tissue-based; conditions: 120 h
Quadruplex DNA [11] = assay: Binding affinity to FAM/TAMRA-labelled antiparallel TBA G4 DNA (unknown origin) assessed as thermal stabilization at 1 to 8 uM measured at 10 to 95 degreeC by FRET analysis; assay type: nucleic-acid assay; conditions: dose 1-8 µM
Quadruplex DNA [12] = assay: Binding affinity to parallel c-MYC Pu24T G4 DNA (unknown origin) assessed as change in topology at 5 uM by CD spectra analysis; assay type: nucleic-acid assay
Quadruplex DNA [13] = assay: Binding affinity to FAM/TAMRA-labelled c-KIT2 G4 DNA (unknown origin) assessed as thermal stabilization at 1 to 8 uM measured at 10 to 95 degreeC by FRET analysis; assay type: nucleic-acid assay; conditions: dose 1-8 µM
Quadruplex DNA [14] = assay: Binding affinity to FAM/TAMRA-labelled 21g G4 DNA (unknown origin) assessed as thermal stabilization at 1 to 8 uM measured at 10 to 95 degreeC by FRET analysis; assay type: nucleic-acid assay; conditions: dose 1-8 µM
Quadruplex DNA [15] = assay: Binding affinity to FAM/TAMRA-labelled parallel KRAS G4 DNA (unknown origin) assessed as thermal stabilization by measuring change in melting temperature at 2 uM in the presence of 100 equivalents of double stranded DNA by FRET competition assay; assay type: nucleic-acid assay
Quadruplex DNA [16] = assay: Binding affinity to parallel c-MYC Pu24T G4 DNA (unknown origin) assessed as thermal stabilization by measuring change in melting temperature at 5 uM measured at 1:1 DNA to ligand ratio by CD spectra analysis; assay type: nucleic-acid assay
Quadruplex DNA [17] = assay: Binding affinity to FAM/TAMRA-labelled c-MYC Pu22 G4 DNA (unknown origin) assessed as thermal stabilization at 1 to 8 uM measured at 10 to 95 degreeC by FRET analysis; assay type: nucleic-acid assay; conditions: dose 1-8 µM
Quadruplex DNA [18] = assay: Binding affinity to FAM/TAMRA-labelled parallel KRAS G4 DNA (unknown origin) assessed as thermal stabilization in the presence of 15 equivalents of double stranded DNA by FRET competition assay; assay type: nucleic-acid assay
Quadruplex DNA [19] = assay: Binding affinity to FAM/TAMRA-labelled antiparallel Bom17 G4 DNA (unknown origin) assessed as thermal stabilization at 1 to 8 uM measured at 10 to 95 degreeC by FRET analysis; assay type: nucleic-acid assay; conditions: dose 1-8 µM

Structure (SMILES)	Activity (Quadruplex DNA [1])	Activity (dsDNA)	Activity (Quadruplex DNA [2])	ΔTm (Quadruplex DNA [3]) [°C]	Kd (Quadruplex DNA [4]) [nM]	Activity (Quadruplex DNA [5])	Activity (Quadruplex DNA [6])	Activity (Quadruplex DNA [7])	IC50 at 5 days [8] [nM]	Activity (Quadruplex DNA [9])	IC50 [10] [nM]	Activity (Quadruplex DNA [11])	Activity (Quadruplex DNA [12])	Activity (Quadruplex DNA [13])	Activity (Quadruplex DNA [14])	ΔTm (Quadruplex DNA [15]) [°C]	ΔTm (Quadruplex DNA [16]) [°C]	Activity (Quadruplex DNA [17])	Activity (Quadruplex DNA [18])	Activity (Quadruplex DNA [19])
Cc1cc(NCCc2c[nH]c3ccccc23)nc(Nc2nc(C)c3ccc4c(c3n2)CCCC4)n1	inactive	inactive	Active																	
Cc1cc(NCCc2c[nH]c3ccccc23)nc(Nc2nc(C)c3ccc4c(c3n2)CCC4)n1	inactive	inactive	Active																	
CCN(CC)CCCNc1cc(C)nc(Nc2nc(C)c3ccc4c(c3n2)CCC4)n1		inactive		7	360	inactive	Active	Active	2820	Active	193	inactive	inactive	Active	Active	10	5	Active	Active	inactive
